{"source": "ChEMBL document CHEMBL1201862", "about": "“PubChem BioAssay data set” (2004)", "key": {"[1]": {"target": "Eukaryotic translation initiation factor 4H (Homo sapiens, UniProt Q15056)", "assay": "human eIF4H binding inhibitors, primary screen, translation initiation inhibitor project, biochemical, uHTS, fluorescence polarization (AID 2012)"}, "[2]": {"target": "5-hydroxytryptamine receptor 1A (Homo sapiens, UniProt P08908)", "sequence (P08908 whole entry)": "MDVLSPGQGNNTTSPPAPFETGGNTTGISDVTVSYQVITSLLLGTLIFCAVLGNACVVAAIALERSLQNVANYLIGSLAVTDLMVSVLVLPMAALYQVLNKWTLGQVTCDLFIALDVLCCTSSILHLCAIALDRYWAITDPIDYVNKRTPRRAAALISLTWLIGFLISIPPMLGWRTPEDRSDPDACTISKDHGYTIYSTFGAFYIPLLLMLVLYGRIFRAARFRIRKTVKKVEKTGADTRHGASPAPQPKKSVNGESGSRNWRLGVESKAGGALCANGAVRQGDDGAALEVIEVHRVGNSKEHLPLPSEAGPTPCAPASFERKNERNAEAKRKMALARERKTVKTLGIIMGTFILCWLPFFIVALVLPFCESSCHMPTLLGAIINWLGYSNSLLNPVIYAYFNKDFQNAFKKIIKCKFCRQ", "assay_type": "functional"}, "[3]": {"target": "Polyadenylate-binding protein 1 (Homo sapiens, UniProt P11940)", "assay": "PABP poly(A) RNA binding inhibitors, primary screen, biochemical, fluorescence polarization, uHTS (AID 2014)"}, "[4]": {"target": "T1, Carboxy-terminal domain RNA polymerase II polypeptide A small phosphatase 1 (Homo sapiens, UniProt Q9GZU7)", "T1 sequence (Q9GZU7 whole entry)": "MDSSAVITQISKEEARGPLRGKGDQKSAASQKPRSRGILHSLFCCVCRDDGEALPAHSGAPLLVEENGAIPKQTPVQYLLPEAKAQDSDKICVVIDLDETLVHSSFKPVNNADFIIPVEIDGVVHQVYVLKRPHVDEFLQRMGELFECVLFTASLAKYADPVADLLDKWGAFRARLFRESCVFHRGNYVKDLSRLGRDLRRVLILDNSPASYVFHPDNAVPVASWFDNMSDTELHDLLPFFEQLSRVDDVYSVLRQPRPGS", "assay": "inhibitors of CTDSP1, concentration-response testing, biochemical assay, absorbance-based, actives from ultra-high-throughput screening (AID 540297)", "assay_type": "functional"}, "[5]": {"assay": "A High Throughput Confirmatory Assay used to Identify Novel Compounds that Inhibit Mycobacterium Tuberculosis in the absence of Glycerol.", "assay_type": "functional"}, "[6]": {"target": "T2, Rac GTPase-activating protein 1 (Homo sapiens, UniProt Q9H0H5)", "T2 sequence (Q9H0H5 whole entry)": "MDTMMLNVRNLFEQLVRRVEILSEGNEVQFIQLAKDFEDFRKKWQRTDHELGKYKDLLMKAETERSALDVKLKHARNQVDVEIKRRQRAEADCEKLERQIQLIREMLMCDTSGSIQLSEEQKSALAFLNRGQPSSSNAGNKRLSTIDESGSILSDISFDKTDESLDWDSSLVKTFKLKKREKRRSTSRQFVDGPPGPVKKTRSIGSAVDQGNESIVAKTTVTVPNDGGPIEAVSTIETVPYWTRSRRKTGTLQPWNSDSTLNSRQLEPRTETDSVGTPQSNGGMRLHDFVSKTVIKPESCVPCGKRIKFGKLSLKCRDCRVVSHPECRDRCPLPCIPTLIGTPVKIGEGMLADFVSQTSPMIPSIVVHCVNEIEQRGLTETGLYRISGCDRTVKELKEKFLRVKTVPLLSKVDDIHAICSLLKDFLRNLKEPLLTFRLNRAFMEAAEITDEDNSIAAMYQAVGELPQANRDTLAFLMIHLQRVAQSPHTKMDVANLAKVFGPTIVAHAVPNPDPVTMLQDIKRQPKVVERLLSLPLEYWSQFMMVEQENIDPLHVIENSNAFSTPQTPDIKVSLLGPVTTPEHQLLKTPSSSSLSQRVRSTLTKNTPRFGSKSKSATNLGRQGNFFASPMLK", "assay": "MgcRacGAP GTPase-activating activity inhibitors, confirmation, biochemical, ADP Hunter fluorescence, primary and confirmatory (AID 624330)", "assay_type": "functional"}, "[7]": {"assay": "M. tuberculosis H37Rv growth inhibitors, H37Rv strain (AID 1626)", "assay_type": "functional"}, "[8]": {"assay": "inhibitors of intracellular T. cruzi replication, confirmation, NIH3T3 host cells, beta-gal luminescence (AID 2044);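 also: luminescent beta-galactosidase reporter signal from transgenic T. cruzi replicating inside host cells; inhibitors lower the luminescence signal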", "assay_type": "functional, cell-based"}, "[9]": {"assay": "cytotoxicity toward NIH3T3 fibroblasts, dose response, counter-screen, cell-based, ATP luminescence, mouse fibroblasts (AID 2010);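 also: cells exposed to compound for about 90 hours before reading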", "assay_type": "functional"}, "[10]": {"tested_on": "Danio rerio", "assay": "In Vivo Angiogenesis Dose-Response Confirmation. [Related pubchem assays: 732 (Assay preceding this confirmatory assay.)]", "assay_type": "functional, organism-based"}, "[11]": {"target": "Peroxisome proliferator-activated receptor gamma/Nuclear receptor corepressor 2 (Homo sapiens, UniProt P37231+Q9Y618)", "sequence (P37231 whole entry)": "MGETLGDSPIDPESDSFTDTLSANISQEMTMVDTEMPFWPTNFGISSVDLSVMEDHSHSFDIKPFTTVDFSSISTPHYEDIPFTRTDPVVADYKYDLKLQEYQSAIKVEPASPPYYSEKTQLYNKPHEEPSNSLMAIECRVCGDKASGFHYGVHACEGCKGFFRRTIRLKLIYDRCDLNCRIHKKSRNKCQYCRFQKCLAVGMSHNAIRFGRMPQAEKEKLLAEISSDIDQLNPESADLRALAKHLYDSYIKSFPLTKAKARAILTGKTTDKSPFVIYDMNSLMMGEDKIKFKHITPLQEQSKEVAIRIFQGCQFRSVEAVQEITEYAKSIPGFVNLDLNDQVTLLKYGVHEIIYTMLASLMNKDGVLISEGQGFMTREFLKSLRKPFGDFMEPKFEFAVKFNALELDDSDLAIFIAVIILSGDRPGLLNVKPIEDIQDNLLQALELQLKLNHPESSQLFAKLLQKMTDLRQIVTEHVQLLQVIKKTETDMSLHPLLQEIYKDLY", "sequence (Q9Y618 whole entry)": "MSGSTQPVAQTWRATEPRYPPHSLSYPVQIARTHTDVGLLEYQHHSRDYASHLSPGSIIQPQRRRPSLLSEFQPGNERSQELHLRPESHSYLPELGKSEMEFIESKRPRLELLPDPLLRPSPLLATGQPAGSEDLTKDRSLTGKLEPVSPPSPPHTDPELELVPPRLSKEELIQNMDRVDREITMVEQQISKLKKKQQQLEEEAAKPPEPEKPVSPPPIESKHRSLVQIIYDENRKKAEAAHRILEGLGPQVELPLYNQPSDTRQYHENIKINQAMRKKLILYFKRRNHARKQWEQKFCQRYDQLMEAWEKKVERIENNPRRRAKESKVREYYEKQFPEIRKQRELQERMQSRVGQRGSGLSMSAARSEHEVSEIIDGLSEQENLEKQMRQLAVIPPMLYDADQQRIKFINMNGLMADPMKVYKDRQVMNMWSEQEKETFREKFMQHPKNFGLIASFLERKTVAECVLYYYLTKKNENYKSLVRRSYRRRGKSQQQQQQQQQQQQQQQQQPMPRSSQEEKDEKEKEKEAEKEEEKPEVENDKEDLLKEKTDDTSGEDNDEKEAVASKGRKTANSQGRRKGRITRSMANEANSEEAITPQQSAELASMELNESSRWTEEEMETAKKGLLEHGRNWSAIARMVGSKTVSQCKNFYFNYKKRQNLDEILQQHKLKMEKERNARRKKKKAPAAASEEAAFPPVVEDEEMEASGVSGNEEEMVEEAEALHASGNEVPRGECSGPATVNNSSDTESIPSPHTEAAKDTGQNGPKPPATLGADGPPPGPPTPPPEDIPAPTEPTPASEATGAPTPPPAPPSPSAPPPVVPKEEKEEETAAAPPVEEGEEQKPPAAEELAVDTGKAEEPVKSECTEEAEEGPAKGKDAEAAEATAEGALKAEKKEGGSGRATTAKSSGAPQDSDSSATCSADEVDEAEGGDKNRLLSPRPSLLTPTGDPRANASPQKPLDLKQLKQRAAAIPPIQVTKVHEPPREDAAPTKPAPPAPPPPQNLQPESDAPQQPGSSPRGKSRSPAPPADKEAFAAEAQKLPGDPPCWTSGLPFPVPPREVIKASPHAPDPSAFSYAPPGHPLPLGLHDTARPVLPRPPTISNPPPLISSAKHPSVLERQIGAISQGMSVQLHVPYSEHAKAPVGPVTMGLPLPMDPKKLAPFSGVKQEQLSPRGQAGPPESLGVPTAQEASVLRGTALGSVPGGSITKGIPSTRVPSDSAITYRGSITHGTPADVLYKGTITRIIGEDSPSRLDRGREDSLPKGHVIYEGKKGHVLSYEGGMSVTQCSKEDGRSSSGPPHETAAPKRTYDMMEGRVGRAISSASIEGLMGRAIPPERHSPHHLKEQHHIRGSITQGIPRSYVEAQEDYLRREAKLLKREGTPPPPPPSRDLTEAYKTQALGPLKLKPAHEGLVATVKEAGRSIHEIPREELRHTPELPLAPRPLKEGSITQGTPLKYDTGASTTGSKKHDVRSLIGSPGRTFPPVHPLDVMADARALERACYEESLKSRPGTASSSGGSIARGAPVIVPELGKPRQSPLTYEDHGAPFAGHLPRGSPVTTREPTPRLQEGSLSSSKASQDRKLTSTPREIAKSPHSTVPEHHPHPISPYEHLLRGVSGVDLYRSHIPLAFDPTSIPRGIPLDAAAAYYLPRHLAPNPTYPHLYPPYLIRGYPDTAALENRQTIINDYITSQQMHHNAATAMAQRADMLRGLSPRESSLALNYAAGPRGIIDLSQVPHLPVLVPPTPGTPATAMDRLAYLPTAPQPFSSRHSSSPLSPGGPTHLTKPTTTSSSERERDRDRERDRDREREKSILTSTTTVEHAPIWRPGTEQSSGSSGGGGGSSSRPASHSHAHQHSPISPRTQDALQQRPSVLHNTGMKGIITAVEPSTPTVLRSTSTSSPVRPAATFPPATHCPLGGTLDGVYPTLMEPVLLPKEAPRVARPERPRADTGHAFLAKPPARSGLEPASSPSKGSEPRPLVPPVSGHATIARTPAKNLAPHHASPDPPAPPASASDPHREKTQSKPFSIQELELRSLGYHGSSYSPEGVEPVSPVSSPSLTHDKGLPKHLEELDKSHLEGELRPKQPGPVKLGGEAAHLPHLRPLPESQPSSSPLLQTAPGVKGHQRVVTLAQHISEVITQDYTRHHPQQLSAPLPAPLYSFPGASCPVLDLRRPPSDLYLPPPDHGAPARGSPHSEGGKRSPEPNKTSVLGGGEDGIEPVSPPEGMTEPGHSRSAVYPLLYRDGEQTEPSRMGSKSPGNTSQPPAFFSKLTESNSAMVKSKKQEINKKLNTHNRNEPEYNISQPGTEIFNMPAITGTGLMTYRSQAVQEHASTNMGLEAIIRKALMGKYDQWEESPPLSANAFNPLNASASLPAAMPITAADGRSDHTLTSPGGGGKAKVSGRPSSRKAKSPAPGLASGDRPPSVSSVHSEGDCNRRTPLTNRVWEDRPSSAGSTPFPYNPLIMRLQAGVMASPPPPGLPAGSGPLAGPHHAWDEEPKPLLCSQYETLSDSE", "assay": "Counterscreen for NR2E3 inverse agonists: TR-FRET-based biochemical high throughput dose response assay to identify inverse agonists of the interaction between peroxisome proliferator-activated receptor gamma (PPARg) and nuclear receptor co-repressor 2 (NCOR2).", "assay_type": "functional"}, "[12]": {"target": "Photoreceptor-specific nuclear receptor (Homo sapiens, UniProt Q9Y5X4)", "sequence (Q9Y5X4 whole entry)": "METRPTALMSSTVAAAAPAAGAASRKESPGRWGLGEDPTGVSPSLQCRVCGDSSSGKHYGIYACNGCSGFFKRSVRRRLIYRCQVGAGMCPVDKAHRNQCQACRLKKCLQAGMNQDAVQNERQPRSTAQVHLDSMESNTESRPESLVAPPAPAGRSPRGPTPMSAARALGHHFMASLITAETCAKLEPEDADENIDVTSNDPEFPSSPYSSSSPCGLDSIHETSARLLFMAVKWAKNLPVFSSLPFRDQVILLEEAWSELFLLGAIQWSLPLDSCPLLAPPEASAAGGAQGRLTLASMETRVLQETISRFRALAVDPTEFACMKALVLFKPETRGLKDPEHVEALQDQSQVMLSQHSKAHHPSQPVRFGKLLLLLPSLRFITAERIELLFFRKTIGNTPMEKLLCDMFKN", "assay": "NR2E3 inverse agonists, dose response, biochemical, TR-FRET (AID 463256)", "assay_type": "functional"}, "[13]": {"target": "T3, Leucine aminopeptidase (Plasmodium falciparum 3D7, UniProt Q8IL11)", "T3 sequence (Q8IL11 whole entry)": "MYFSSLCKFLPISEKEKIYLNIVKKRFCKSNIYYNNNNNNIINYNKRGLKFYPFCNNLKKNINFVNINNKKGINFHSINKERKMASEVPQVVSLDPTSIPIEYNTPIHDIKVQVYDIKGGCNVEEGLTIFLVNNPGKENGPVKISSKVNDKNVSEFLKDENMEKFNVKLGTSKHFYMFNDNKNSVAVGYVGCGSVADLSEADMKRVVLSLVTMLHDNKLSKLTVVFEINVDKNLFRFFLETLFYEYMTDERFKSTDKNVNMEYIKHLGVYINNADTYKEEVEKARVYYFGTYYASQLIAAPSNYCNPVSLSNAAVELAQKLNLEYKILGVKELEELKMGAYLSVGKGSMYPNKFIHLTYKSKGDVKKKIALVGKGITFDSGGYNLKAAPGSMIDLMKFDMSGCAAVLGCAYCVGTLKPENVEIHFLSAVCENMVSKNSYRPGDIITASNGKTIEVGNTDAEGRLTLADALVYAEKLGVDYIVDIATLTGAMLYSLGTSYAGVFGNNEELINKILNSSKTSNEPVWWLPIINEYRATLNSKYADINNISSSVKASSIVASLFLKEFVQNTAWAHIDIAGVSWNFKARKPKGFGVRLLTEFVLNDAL", "assay": "P. falciparum M17LAP inhibitors, primary screen, biochemical, fluorogenic H-Leu-NHMec substrate, 1536-well (AID 1619)", "assay_type": "functional"}, "[14]": {"target": "Aryl hydrocarbon receptor (Homo sapiens, UniProt P35869)", "sequence (P35869 whole entry)": "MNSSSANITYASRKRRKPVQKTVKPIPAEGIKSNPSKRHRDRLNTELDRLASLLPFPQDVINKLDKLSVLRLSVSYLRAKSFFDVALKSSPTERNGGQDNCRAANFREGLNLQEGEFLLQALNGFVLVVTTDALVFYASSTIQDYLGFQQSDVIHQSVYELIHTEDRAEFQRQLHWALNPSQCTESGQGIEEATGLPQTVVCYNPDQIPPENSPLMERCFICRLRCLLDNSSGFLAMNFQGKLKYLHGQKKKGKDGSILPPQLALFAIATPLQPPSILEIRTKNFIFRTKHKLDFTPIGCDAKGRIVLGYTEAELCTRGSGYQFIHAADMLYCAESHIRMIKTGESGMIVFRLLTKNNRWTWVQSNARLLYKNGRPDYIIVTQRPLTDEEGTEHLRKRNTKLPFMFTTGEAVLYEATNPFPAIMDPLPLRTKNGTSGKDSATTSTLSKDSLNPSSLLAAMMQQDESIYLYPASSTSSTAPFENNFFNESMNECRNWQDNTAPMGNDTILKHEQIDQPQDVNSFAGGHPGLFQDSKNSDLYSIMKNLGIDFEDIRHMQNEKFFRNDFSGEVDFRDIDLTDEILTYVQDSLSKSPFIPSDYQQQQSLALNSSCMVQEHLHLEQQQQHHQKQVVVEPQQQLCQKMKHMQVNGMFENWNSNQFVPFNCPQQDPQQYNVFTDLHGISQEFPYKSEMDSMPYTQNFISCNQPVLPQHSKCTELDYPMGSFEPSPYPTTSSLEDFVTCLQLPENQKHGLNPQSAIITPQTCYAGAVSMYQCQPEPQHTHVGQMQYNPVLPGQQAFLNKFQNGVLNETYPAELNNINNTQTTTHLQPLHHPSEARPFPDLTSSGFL", "assay": "Luminescence-based cell-based high throughput dose response assay for activators of the Aryl Hydrocarbon Receptor (AHR). [Related pubchem assays: 2796 (Primary screen (AHR activators in singlicate)), 2845 (Confirmation screen (AHR activators in triplicate)), 434939 (Counterscreen (PXR activators in triplicate)), 2804 (Summary (AHR activators))]", "assay_type": "ADME"}}, "note": "Active and inactive are the calls of the source.", "data": [{"smiles": "C[N+]1=C2CCCCCN2C(O)(c2ccccc2)C1", "note": "(centres undefined)", "values": [{"measurement": "IC50", "setting": "[1]", "result": "75.1 µM (active)"}, {"measurement": "EC50", "setting": "[2]", "result": "13.8 µM (not active)"}, {"measurement": "IC50", "setting": "[3]", "result": "3.25 µM (active)"}, {"measurement": "IC50", "setting": "[4]", "result": "7.03 µM (active)"}]}, {"smiles": "O=C(NC1CCN(C(=O)N2c3ccccc3Sc3ccccc32)CC1)c1ccccc1F", "values": [{"measurement": "IC50", "setting": "[5]", "result": "> 100 µM (active)"}, {"measurement": "IC50", "setting": "[6]", "result": "115 µM (active)"}]}, {"smiles": "CCc1ccccc1NC(=O)c1ccc([N+](=O)[O-])s1", "values": [{"measurement": "IC50", "setting": "[7]", "result": "> 100 µM (active)"}, {"measurement": "EC50", "setting": "[8]", "result": "0.471 µM (active)"}, {"measurement": "EC50", "setting": "[9]", "result": "> 30 µM (not active)"}]}, {"smiles": "Cc1cccc2c1NC(=O)/C2=C1\\Nc2ccc(Br)cc2C1=O", "values": [{"measurement": "IC50", "setting": "[10]", "result": "0.52 µM (not active)"}]}, {"smiles": "COc1ccc(-c2ccc(SCC(=O)Nc3nccs3)nn2)cc1OC", "values": [{"measurement": "IC50", "setting": "[11]", "result": "6.57 µM (active)"}, {"measurement": "IC50", "setting": "[12]", "result": "7.04 µM (active)"}]}, {"smiles": "Nc1[nH]ncc1C(=O)Nc1cccc(C(F)(F)F)c1", "values": [{"measurement": "IC50", "setting": "[13]", "result": "44.5 µM (active)"}, {"measurement": "EC50", "setting": "[14]", "result": "12.5 µM (not active)"}]}]}
